Assay results reported in patent publication US11000568B2, “Means and methods for treating copper-related diseases” (HELMHOLTZ ZENTRUM MÜNCHEN—DEUTSCHES FORSCHUNGSZENTRUM FÜR …, priority 2015, dated 2021).
Entries after “also recorded” stand apart in the source; their conditions may differ. Where a name gives a salt, the structure may show the parent alone.

Legend:
LPP−/− rats = assay: Short-term in vivo treatment of LPP−/− rats; design: species or system rat; conditions: MB i.p. 3 or 5 days; D-PA or TETA 4 days
Procedure: LPP rats were treated with MB either by daily i.p. injections for 3 or 5 consecutive days, or twice daily i.p. injections for 8 consecutive days at a dose of 150 mg/kg bw or 4 days via the drinking water with D-PA at a dose of 100 mg/kg bw/d or TETA at 480 mg/kg bw/d, respectively (Togashi et al., Hepatology 15, 82-87 (1992)). Based on a mean copper content of 250 μg/g w.w. in Atp7b−/− rat livers at the age of treatment start (Zischka et al., log. cit.), a LPP−/− rat liver of 8 g w.w. contains around 31.5 μmol copper. Single MB doses were chosen equimolar to this copper amount. […] Assuming 40 ml water intake per day for a rat weighing 250 g this translates to a dose of 480 mg/kg bw/d. With respect to the mean liver copper content in LPP−/− rats aged 85 days, the molar ratios of the chelators applied was MB 1:D-PA 4.3:TETA 17.4, respectively. For the intravenous MB application (150 mg/kg bw), catheters connected to a PinPort™ (Instech Laboratories, Inc., USA) were inserted in the femoral vein of the rat, fixed with non-absorbable sutures and subcutaneously tunneled and exteriorized through a skin incision made between the shoulders.
Formalin-fixed, paraffin-embedded liver samples were cut into 4 μm-thick sections and either stained with hematoxylin and eosin for standard analyses or with Masson trichrome for analysis of fibrotic tissue. AST activity and bilirubin concentration in animal plasma or serum were measured with a Reflotron system (Roche).
Copper in liver homogenates, cell lysates and mitochondrial preparations were analyzed by ICP-OES (Ciros Vision, SPECTRO Analytical Instruments GmbH) after wet ashing of samples with 65% nitric acid (Zischka et al., log. cit.).
The efficiency of a short-term MB treatment schedule was assessed in LPP−/− rats at the age of liver disease onset (85-90 days). Animals received MB (i.p.) either for 3 or 5 days or the clinically used copper chelators D-PA or TETA, which were orally administered for 4-days.

LPP−/− livers = assay: Two hour LPP−/− liver perfusion; design: species or system rat; conditions: MB 0.7 μM, TTM 0.8 μM, D-PA 2.2 μM, TETA 1.8 μM
Procedure: LPP−/− livers (animal age 79-83 days) were perfused in a single pass manner with Krebs-Ringer bicarbonate solution containing 5 mM glucose (Beuers et al., J Biol Chem 278, 17810-17818 (2003)). The medium was gassed with 95% O2/5% CO2 and kept at 37° C. Rat livers were perfused via the portal vein (Beuers et al., log. cit.), the right lateral liver lobe was ligated and its copper content served as pre-perfusion control (Beuers et al., Hepatology 33, 1206-1216 (2001)). After cannulation of the bile duct a 20 min sample of bile was collected before the copper chelators were continuously added to the perfusion medium. Bile and outflow perfusate were collected in 10 min intervals as described elsewhere (Beuers et al., log. cit.). D-PA*HCl (20 mg/108 μmol), TETA*2HCl (20 mg/91 μmol), TTM*2NH4 (10 mg/38 μmol) and MB (40 mg/35 μmol) were each dissolved in 50 ml 0.9% NaCl, and continuously added to the perfusion medium via a perfusion pump (Perfusor, Braun, Melsungen) within 2 hours. The molar ratios of the chelators applied was MB 1:D-PA 3.1:TETA 2.6:TTM 1.1. LDH in the outflow perfusate was measured every ten minutes as described (Beuers et al., log. cit.). Control perfusions were done with Krebs-Ringer bicarbonate solution only.

LEC rats = conditions: 100 mg/kg bw/d via drinking water, long-term; cited from earlier work
LPP−/− mitochondria = assay: Chelator treatment of freshly isolated copper burdened LPP−/− mitochondria (copper extraction); design: species or system rat; conditions: 30 min incubation

Row | Molecule | mitochondrial copper (LPP−/− rats) | serum AST levels (LPP−/− rats) | whole liver copper (LPP−/− rats) | further results
1 | CC(C)(S)[C@@H](N)C(=O)O.Cl [D-PA, D-penicillamine*HCl, reference compound] | No copper reduction | unable to avoid the increase of serum AST levels | No copper reduction | copper released into bile (LPP−/− livers): did not provoke any detectable release of copper into the bile; also recorded: did not bring copper into bile; onset of hepatitis (LEC rats): successfully prevent the onset of hepatitis
2 | NCCNCCNCCN [TETA, trientine*2 HCl, reference compound] | No copper reduction | unable to avoid the increase of serum AST levels | No copper reduction | copper released into bile (LPP−/− livers; HCl): did not provoke any detectable release of copper into the bile; also recorded: did not bring copper into bile
3 | CC(NC(=O)C(C)NC(=S)C1N=C(C(NC(=O)C(CO)NC(=O)C(C)NC(=S)C2N=C(C(=O)CCCNC(=N)N)NC2=O)C(C)OS(=O)(=O)O)OC1=O)C(=O)O (centres unmarked) [mb-SB2] | – | – | – | copper depletion from LPP−/− mitochondria (LPP−/− mitochondria; 1 mM, mitochondria from three LPP−/− rats, vs buffer treated control): depletes copper at least as effective as another MB peptide mb-OB3b; also recorded: decreased at least as effective as the MB peptide mb-OB3b
4 | tetrathiomolybdate*2 NH4 [TTM] | – | – | – | copper associated with LPP−/− mitochondria (LPP−/− mitochondria; 2 mM each): rapidly decreased copper
